# In US11919933B2, “Use of MYOG gene as target in preparation of drug for treating cardiomyocyte apoptosis-associated cardiovascular disease” (GUANGDONG BEATING ORIGIN REGENERATIVE MEDICINE CO., LTD., priority 2020, dated 2024):
# Structures can show the parent of a compound that is named as a salt.
# What was measured:
# Format in all cases: cell-based, human
# [1] = system: MYOG expression in hiPSC-MYOG cells; experiment: qPCR detection of MYOG mRNA expression levels after Dox induction; settings: Dox 2 μg/mL
# Experimental: 2.1 Induction: The expression of MYOG was induced by adding Dox (Sigma, D9891) at a final concentration of 2 μg/mL to STEMUP, and DMSO was used as a control. In the control group, only DMSO (denoted as C1) was added to STEMUP. In the experimental group, both DOX and DMSO were added to STEMUP, where DOX was first added to DMSO, and then a resulting mixture (denoted as C2) was added to STEMUP. A final concentration of DOX in STEMUP was 2 μg/mL, and the C1 and C2 were added at a same amount. 2.2 Total RNA extraction: The UN1Q-10 column Trizol total RNA extraction kit (Sangon Biotech, B511321-0100) was used to extract total RNA of the cells (a sample was treated with deoxyribonuclease I (DNase I, Sangon Biotech, B618252) for 30 min in advance). 2.3 Reverse transcription: RNA was reverse-transcribed with the reverse transcription kit iScript Reverse Transcription Supermix (Bio-Rad, 1708841). 2.4 qPCR detection of MYOG mRNA expression levels: According to the instructions of SsoAdvanced™ Universal SYBR® Green Supermix (Bio-Rad, 1725271), the PikoReal Real-Time PCR system (Thermo Fisher) was used to design primers with […] as an internal reference, and then MYOG expression levels in hiPSC and hiPSC-MYOG (Dox-induced group and DMSO control group) were detected. Sequences of the primers were as follows: […]
# hiPSC-CMs [2] = experiment: Annexin V apoptosis assay (flow cytometry) of angiotensin II-treated hiPSC-CMs; settings: angiotensin II 100 μM and 1 mM, 10 d
# Experimental: (§1) 2.1 Induction of hiPSC-CM apoptosis with angiotensin II: Purified hiPSC-CMs were cultivated in a cardiomyocyte medium (MedChemExpress, HY-13948) with angiotensin II at different concentrations (1 nM, 10 nM, 100 nM, 1 μM, 10 μM, 100 μM, and 1 mM), and the angiotensin II-containing medium was changed every 2 days.
# 2.2.2 The apoptosis of cardiomyocytes treated with angiotensin II (100 μM and 1 mM) and untreated with angiotensin II on day 10 was detected with the apoptosis assay kit Annexin V, Alexa Fluor™488 conjugate (Invitrogen, V13201). Cardiomyocytes were labeled with the apoptosis marker Annexin V and then assayed with a FACSAria™ II flow cytometer (BD).
# hiPSC-CMs [3] = experiment: PrestoBlue cell viability assay of angiotensin II-treated hiPSC-CMs; settings: angiotensin II 100 μM and 1 mM, long-term treatment (6 d and 10 d)
# Experimental: as §1
# 2.2.1 A cardiomyocyte viability was detected with the PrestoBlue cell viability assay reagent (Invitrogen, A13261) at 24 h, 48 h, 6 d, and 10 d, and results are shown in FIG. 3.
# hiPSC-MYOG-CMs = experiment: TUNEL apoptosis test of hiPSC-MYOG-CMs (Ang II / Dox groups); settings: angiotensin II 1 mM, 6 d
# Experimental: 5.1 Induction of hiPSC-MYOG-CM apoptosis with angiotensin II: Purified hiPSC-MYOG-CMs were divided into 4 groups (Ang II(+)&Dox(+), Ang II(+)&Dox(−), Ang II(−)&Dox(+), and Ang II(−)&Dox(−)) and then treated for 6 d with a Dox having a concentration of 2 μg/mL and an angiotensin II having a concentration of 1 mM.
# 5.3 Apoptosis assay: TUNEL test: The TdT in situ apoptosis detection kit (R&D Systems, 4812-30-K) was used to detect the apoptosis of cardiomyocytes in the 4 groups (Ang II(+)&Dox(+), Ang II(+)&Dox(−), Ang II(−)&Dox(+), and Ang II(−)&Dox(−)). Cardiomyocytes were digested, then added on a glass slide, and stained according to the kit instructions. Nuclei were labeled with DAPI.
# hiPSC-CMs [4] = experiment: TUNEL apoptosis test of angiotensin II-treated hiPSC-CMs; settings: angiotensin II 100 μM and 1 mM, 10 d
# Experimental: as §1
# 2.2.3 TUNEL test: The TdT in situ apoptosis detection kit (R&D Systems, 4812-30-K) was used to detect the apoptosis of cardiomyocytes treated with angiotensin II (1 nM, 1 μM, 100 μM, and 1 mM) and untreated with angiotensin II on day 10. Cardiomyocytes were digested, then added on a glass slide, and stained according to the kit instructions, and nuclei were labeled with DAPI.
Compound,expression level of MYOG in the Dox-induced group versus the DMSO control group [1],proportion of apoptotic cells (Annexin V) (hiPSC-CMs [2]),cell viability (hiPSC-CMs [3]),apoptotic cell proportion relative to the control group (hiPSC-MYOG-CMs) [times],proportion of apoptotic cells (TUNEL) (hiPSC-CMs [4])
"C[C@H]1c2cccc(O)c2C(=O)C2=C(O)[C@]3(O)C(=O)C(C(N)=O)=C(O)[C@@H](N(C)C)[C@@H]3[C@@H](O)[C@@H]21 [Dox, doxycycline hydrochloride]",more than 100 times,,,,
"angiotensin II (DRVYIHPF; Angiotensin-2; UniProt P01019 25-32, looked up) [common inducer for establishing cardiomyocyte apoptosis models]",,increased significantly,decreased significantly,2.01,increased significantly
